“Also recorded” adds a separate entry of the source.
What was measured:
leukemia cell lines = test: MTS cell viability assay in leukemia/lymphoma cell lines; format: cell-based; details: increasing concentrations, 72 hours
Experimental: Leukemia (HL-60, RSV411, k562, Jurkat, U937), LYMPHOMA (MDAY-D2), solid tumour cell lines (PPC-1, HeLa, OVCAR-3, DU-145, HT-29) and GMO5757 human lung fibroblasts were cultured in RPMI 1640 medium. HepG2 hepatoma cells and MRC5 human lung fibroblasts were grown in Dulbecco modified Eagle medium. OCI-M2, OCI-AML2 and NB4 leukemia cell lines and OPM2, KMS11, LP1, UTMC2, KSM18 and OCIMy5 myeloma cell lines were maintained in Iscove Modified Dulbecco Medium. LF1 human lung fibroblasts were maintained in HAM medium. All media were supplemented with 10% fetal calf serum, 100 μg/mL of penicillin, and 100 units/mL of streptomycin (all from Hyclone, Logan, Utah). The cells were incubated at 37° C. in a humidified air atmosphere supplemented with 5% CO2.
The CellTiter96 aqueous nonradioactive (MTS) assay was used to measure cell viability according to the manufacturer's instructions (Promega). Propidium iodide (PI) staining was used according to manufacturer's instructions (Biovision, Mountain view, Calif.).
From this chemical screen, the antimicrobial CPX was identified. CPX is currently used for the topical treatment of cutaneous fungal infections. As an anti-fungal agent, the mechanism of action of CPX is not well understood, but appears related to binding intracellular iron and inhibiting iron containing enzymes. […] 72 hours after incubation, cell viability was measured by the MTS assay. […]

[1] = tested on: OCI-AML2, K562 human leukemia cells and MDAY-D2 murine leukemia cells; format: in vivo; details: CPX 25 mg/kg daily by oral gavage; all 3 mouse models
Experimental: MDAY-D2 (MDAY) murine leukemia cells (5×10^5) were injected intra-peritoneal into NOD/SCID mice (Ontario Cancer Institute, Toronto, ON), OCI-AML2 and K562 cells (2×10^6) were injected subcutaneously into both flanks of sub-lethally irradiated (3.5 Gy) NOD/SCID mice. Mice were then treated daily by oral gavages with CPX (25 mg/kg) in PBS or vehicle control. Tumour volume (tumour length×width^2×0.5236) (Mol Cancer Ther. 2004; 3:1239-1248) was measured weekly using calipers. Eight (MDAY-D2), 11 (OCI-AML2) or 30 (K562) days after injection of cells, mice were sacrificed, and the volume and weight of the tumours was measured. All animal studies were carried out according to the regulations of the Canadian Council on Animal Care and with the approval of the local ethics review board.
Given the effects in leukemia cells lines, the effects of oral CPX was evaluated in 3 mouse models of leukemia. Sublethally irradiated NOD-SCID mice were injected subcutaneously with OCI-AML2 or K562 human leukemia cells or intraperitoneally with MDAY-D2 murine leukemia cells. […].

survivin promoter = test: Survivin promoter luciferase reporter screen in HeLa cells; format: cell-based, human; details: 5 μM, 24 hours
From the text: The full-length survivin promoter (−1059 upstream of the initiating ATG) (NIEHS-SNPs, Environmental Genome Project, NIEHS ES15478, Department of Genome Sciences, Seattle, Wash.) was isolated from HeLa genomic DNA using the forward primer 5′-[…]-3′ (SEQ ID NO:1) and the reverse primer 5′-[…]-3′ (SEQ ID NO:2).
The promoter was sub-cloned into the GL4.20 firefly luciferase reporter vector (Promega Corporation, Madison, Wis.). Clones were sequence-verified for orientation and integrity using a CEQ 8000 Genetic Analysis System (Beckman, Mississauga, ON, Canada). […]
(A) HeLa cells stably overexpressing the survivin promoter driving luciferase (15000 cells/well) were plated in 96-well plates. […] After incubation, survivin promoter activity was assessed by the luciferase assay described below. […]
Luciferase activity was measured according to the manufacturer's instructions and as previously described (Promega, Madison, Wis.) (Mao Blood). […] After 10-minutes incubation, an equal volume of Bright-Glo Luciferase substrate (Promega) was added, and the luminescence signal was detected with a 96-well Luminoskan luminescence plate reader (Thermo Fisher Scientific, Waltham, Mass.) with 5-seconds integration time. […]

[2] = tested on: HeLa, PPC-1 and MDAY-D2 cells; test: Cell cycle analysis by PI staining and flow cytometry; format: cell-based; details: 5 μM CPX; eighteen hours; prior to the onset of cell death
Experimental: (§1) FIG. 5: Cell cycle arrest, survivin decrease and p53 increase precede CPX induced cell death. A) HeLa, PPC-1 and MDAY-D2 cells were treated with 5 μM CPX or buffer control. Eighteen hours after incubation, cell cycle was analyzed by PI staining and Flow cytometry. B) NB4 and OCI-M2 cell lines were incubated with CPX (5 μM) for 48 hours. After incubation cells were harvested and nuclear proteins were isolated. Levels of p53 and the nuclear protein glucocorticoid receptor (GR) were measured by immunoblotting. C) Solid tumor (OVCAR3, HT-29, HepG2, DU145, HeLa) and leukemia (OCI-M2, OCI-AML2, NB4, HL-6) cell lines were treated with CPX (2.5 μM) or buffer control for 48 hours. After incubation, total protein was isolated. Levels of survivin and GAPDH were measured by immunoblotting.
Cell-cycle analysis was performed as previously described (Blood 112(3):760). Briefly, cells were harvested, washed with cold PBS, re-suspended in 70% cold ethanol, and incubated overnight at −20° C. Cells were then treated with 100 ng/mL of DNase-free RNase (Invitrogen, Carlsbad, Calif.) at 37° C. for 30 minutes, washed with cold PBS, and re-suspended in PBS with 50 μg/mL of PI (Sigma). DNA content was analyzed by flow cytometry (FACSCalibur; BD Biosciences, San Jose, Calif.).

[3] = tested on: survivin, Cyclin D1, YY1 and FTII-D; test: Immunoblotting of protein expression after CPX treatment; format: cell-based; details: prior to the onset of cell death
Experimental: as §1
Total cell lysates were prepared from cells. […] Protein concentrations were measured by the Bradford assay (Anal Biochem. 1996; 236:221-228). […]
Membranes were probed with polyclonal rabbit anti-human survivin (1 μg/mL) (NOVUS), monoclonal mouse anti-human p53 (0.5 μg/mL), polyclonal rabbit anti-human GR (0.5 μg/mL) both from (Santa Cruz Biotechnologies, CA), or with mouse anti-human GADPH (Trevigen, Gaithersburg, Md.). […] Detection was performed by the enhanced chemical luminescence method (Pierce, Rockford, Ill.).

Compound: Cc1cc(C2CCCCC2)n(O)c(=O)c1 [CPX, 6-Cyclohexyl-1-hydroxy-4-methyl-2(1H)-pyridone]
- effect on cell viability (leukemia cell lines): decreased cell viability in all leukemia cell lines tested; also recorded: decreased cell viability in all leukemia and lymphoma cell lines
- decrease in tumor volume compared to control [1]: up to 65%
- decrease in tumor weight compared to control [1]: up to 65%
- inhibition of survivin transactivation (luciferase expression) (survivin promoter): inhibitor of survivin transactivation
- cell cycle effect [2]: arrested cells in the G1/S phase of the cell cycle
- effect on protein expression [3]: down-regulated the expression of survivin, Cyclin D1, and the transcription factors YY1 and FTII-D

From patent US20110212176A1, “CICLOPIROX AND CYTARABINE FOR THE TREATMENT OF LEUKEMIC DISORDERS” (priority 2008, published 2011)
